Laboratory results from publication PMC6894747 (PLoS Pathogens, 2019).
Positions of bridges follow the written chain, without caps; N, C: chain ends. Residues, ends and D or L forms follow the SMILES beside them. No end group written: not given here.

Legend:
gp41 NHR peptide N36 = biological target: T1, gp41 NHR peptide N36 (Human immunodeficiency virus type 1 group M subtype B, UniProt P04578); assay: Thermostability of 6-HB formed with N36, by CD; type: binding, HIV-1; details: CD at 222 nm, 20 to 98 °C at 1.2 °C/min, 10 μM peptide in PBS
T1 construct: purchased KareBay Biochem, Inc; host or cells: solid-phase chemical synthesis
Method: CD spectroscopy was conducted as previously described. Briefly, a CHR peptide was incubated with NHR peptide N36 at concentration of 10 μM at 37 °C for 30 min. The separated C-peptides were also measured. The CD spectra were measured on a Jasco spectropolarimeter (model J-815; Jasco, Inc., Easton, MD, USA), using a 1-nm bandwidth with a 1-nm step resolution from 195 to 260 nm at room temperature. The spectra were corrected by subtraction of PBS. The α-helical content was calculated from the CD signal by dividing the mean residue ellipticity [θ] at 222 nm by the value expected for 100% helix formation (-33,000 deg·cm^2·dmol^-1). The thermal denaturation experiment was performed by monitoring the changes in ellipticity [θ] at 222 nm at increasing temperature from 20 to 98 °C at a rate of 1.2 °C/min; data were acquired at a 1-nm bandwidth at 222 nm at a frequency of 0.25 Hz. The melting curve was smoothed, and the midpoint of the thermal unfolding transition (Tm) value was taken as the maximum of the derivative d[θ] 222/dt. Tm value was detected at a peptide concentration of 10 μM in PBS buffer.

HIV-1 clinical strains = type: cell-based; details: 8 clinical strains
Method: (§1) Briefly, 1×10^5/mL MT-2 or M7 cells were infected with different HIV-1 viruses at 100 TCID50 (50% tissue culture infective dose) in the presence or absence of peptides at graded concentrations overnight. Then the culture supernatants were replaced with equal volume of fresh medium. On the fourth day post-infection, supernatants were collected and mixed with equal volume of 5% Triton X-100. […] The IC50 values were calculated with CalcuSyn software [35–36], and inhibition curves of best fit were generated with GraphPad Prism.

T20-resistant strains = assay: Inhibition of T20-resistant HIV-1 variants, average; type: cell-based; details: comparison with CP24
Method: as §1

HIV-1 JR-CSF [1] = assay: Therapeutic efficacy in humanized mice with established HIV-1 infection; type: in vivo, humanized NRG mice; details: n = 4
Method: Humanized mice were inoculated with HIV-1 JR-CSF (10 ng p24/mouse) through retro-orbital injection and randomly assigned to 2 groups (4 mice in each group).
HIV-1 genomic RNA was purified from plasma by using the QIAamp Viral RNA Mini Kit. The RNA was reverse-transcribed and quantitatively detected by real-time PCR with the TaqMan Fast Virus 1-Step PCR kit (Thermo Fisher Scientific). We used the forward primer 5’-[…]-3’ and the reverse primer 5’-[…]-3’ to detect the HIV gag gene. […] The limit of detection of each real-time PCR was 4 copies per reaction. Accordingly, owing to the relatively small volume of plasma in mice (about 50–100 μL total blood), the limit of detection was 400 copies/mL plasma. The copy numbers below the detectable limit were set as 1. Triplicate reactions were performed for each sample.

HIV-1 IIIB = assay: Ex vivo anti-HIV-1 activity of sera from treated mice; type: in vivo; details: BALB/c mice, i.p., N6 3.2 mg/kg and/or IBP-CP24 1.8 mg/kg
Method: The ex vivo anti-HIV-1 activity of a peptide or a bNAb or their combination in serum samples from mice treated with the peptide or bNAb was detected as described previously. […] Sera were collected from these mice at 2 and 8 h post-injection and tested for their inhibitory activity against HIV-1IIIB infection as described above. The dilution fold of the serum causing 50% inhibition (DF-IC50) was calculated.

HIV-1 JR-CSF [2] = assay: Inhibitors alone or in combination against HIV-1 JR-CSF; type: cell-based
Method: The samples were serially diluted and tested for their inhibitory activity on HIV-1 infection as described above. The data were analyzed for synergistic effect by calculating the combination index (CI) with the CalcuSyn software. CI values of <0.95 and >1.05 indicate synergy and antagonism, respectively. CI <0.1, 0.1–0.3, 0.3–0.7, 0.7–0.85, and 0.85–0.90 indicate very strong synergism, strong synergism, synergism, moderate synergism, and slight synergism, respectively. Fold of dose reduction was calculated with the ratio of concentrations of inhibitor testing alone and in combination.

rhesus monkey IgG = assay: ELISA binding to rhesus monkey IgG; details: ELISA on peptide-coated plate; one site specific binding fit; ± SE, three replicates per point; read-out: Estimated Kd of binding to rhesus monkey IgG
Method: Next, different concentrations of human or rhesus monkey IgG were added to the peptide-coated plate and incubated at 37 °C for 1 h. Rabbit anti-human IgG-HRP (1:3000 diluted) was added to each well and incubated at 37 °C for another 1 h. Afterwards, the bound IgG-HRP was detected by addition of the HRP substrate TMB. The reaction was terminated by addition of 1 M H2SO4 50 μL. Absorbance at 450 nm was measured using an ELISA reader (Ultra 384; Tecan, Research Triangle Park, NC).
The data was fitted to the “one site – specific binding” using GraphPad Prism. The standard error (SE) is given for a sample size of three replicates per data point.

[3] = test system: cell-cell fusion between H9/HIV-1IIIB and MT-2 cells; details: IC50 comparison with CP24
Method: The inhibitory activity of peptides against cell-cell fusion between H9/HIV-1IIIB and MT-2 cells was detected, as described previously [3, 81]. Briefly, H9/HIV-1IIIB cells were labeled with a fluorescent reagent, Calcein AM (Molecular Probes, Inc., Eugene, Oregon), and then incubated with MT-2 cells (ratio = 1:10) in a 96-well plate at 37 °C for 2 h in the presence of a test peptide at graded concentrations or PBS as a control. The fused and unfused Calcein-labeled HIV-1-infected cells were counted under an inverted fluorescence microscope (Zeiss, Germany). Three fields of each well were counted and the percentage of inhibition of cell fusion by peptides was calculated as described previously [81]. The IC50 values of fusion were calculated using the CalcusSn software [36] and the inhibition curves of best fit were generated with GraphPad Prism.

[4] = test system: H9/HIV-1IIIB target cells with PBMC effector cells; assay: ADCC assay, 10E8-mediated lysis; type: cell-based, human; details: peptide up to 20 μM added to 10E8
Method: H9/HIV-1IIIB cells expressing HIV-1 Env (2.5 × 10^4 cells) as the target cells were seeded into a 96-well plate (25 μL/well), and the mixture of a serially diluted inhibitors and 10E8 (1.5 μg/mL) was added to the culture plate. PBMC (AllCells) as effector cells (2.5 × 10^4 cells in 25 μL) were cocultured with the mixture-treated target cells at 37 °C overnight, and the […] activity was measured using the CytoTox-ONE Homogeneous Membrane Integrity Assay (Promega).

ICR mice = assay: Safety of IBP-CP24 for ICR mice; type: in vivo; details: for serum ALT level / serum creatinine level: i.p., CP24 10 mg/kg, IBP-CP24 10 or 100 mg/kg, before and 5 h, 1, 4 days post-injection
Method: Body weight changes of mice at different time points were monitored. Creatinine and ALT in the sera were measured by using the creatinine and ALT assay kits (NJJCBIO, Nanjing, China) before injection and 5 h, 1, and 4 days post-injection, respectively. All mice were sacrificed at day 15 post-injection, and the livers and kidneys were collected for haematoxylin and eosin (H&E) staining.

T1 sequence (P04578 546-581): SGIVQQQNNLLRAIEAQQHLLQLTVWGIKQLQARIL

Molecule | Tm of the 6-HB formed with N36 (gp41 NHR peptide N36) [°C] | average IC50 fold of that of CP24, clinical strains (HIV-1 clinical strains; comparison with CP24) [fold] | average IC50 fold of that of T20, clinical strains (HIV-1 clinical strains; comparison with T20) | average IC50 fold of that of CP24, T20-resistant strains (T20-resistant strains) | mean Δlog10 plasma HIV-1 RNA (HIV-1 JR-CSF [1]; 20 mg/kg i.p. once daily for 14 days, coinjected with human IgG 40 mg/kg twice weekly) [log10] | average decrease of plasma HIV-1 RNA (HIV-1 JR-CSF [1]; day 35 post-treatment, after twice daily 20 mg/kg for 21 days plus human IgG) [log10] | DF-IC50 (dilution fold of serum causing 50% inhibition of HIV-1 IIIB infection) (HIV-1 IIIB; sera 2 h post-injection) | DF-IC50 (dilution fold of serum causing 50% inhibition of HIV-1 IIIB infection) (HIV-1 IIIB; sera 8 h post-injection) | Dose reduction (HIV-1 JR-CSF [2]; mixture 10E8 / IBP-CP24, HIV-1 JR-CSF) [fold] | Dose reduction (HIV-1 JR-CSF [2]; mixture C34 / IBP-CP24, HIV-1 JR-CSF) [fold] | Dose reduction (HIV-1 JR-CSF [2]; mixture VRC07 / IBP-CP24, HIV-1 JR-CSF) [fold] | Kd (rhesus monkey IgG) [nM] | fold of CP24 in cell-cell fusion inhibition [3] | effect on 10E8-mediated lytic activity [4] | in vivo toxicity, overall (ICR mice; 10 and 100 mg/kg i.p.) | H&E stained sections of liver and kidneys (ICR mice; day 15 post-injection, versus PBS) | serum ALT level (ICR mice; versus PBS) | serum creatinine level (ICR mice; versus PBS)
CC[C@H](C)[C@H](NC(=O)[C@H](CC(C)C)NC(=O)[C@H](CCC(=O)O)NC(=O)[C@H](CCC(=O)O)NC(=O)[C@@H](NC(=O)[C@H](CCCCN)NC(=O)[C@H](CCCCN)NC(=O)[C@@H](NC(=O)[C@H](Cc1ccc(O)cc1)NC(=O)[C@H](CCC(=O)O)NC(=O)[C@H](CCC(=O)O)NC(=O)[C@@H](NC(=O)[C@H](CCCCN)NC(=O)[C@H](CCCCN)NC(=O)[C@H](CC(=O)O)NC(=O)[C@H](Cc1c[nH]c2ccccc12)NC(=O)[C@H](CCC(=O)O)NC(=O)[C@H](CCC(=O)O)NC(=O)[C@H](Cc1c[nH]c2ccccc12)NC(=O)[C@@H](NC(=O)[C@H](CCSC)NC(=O)[C@@H](NC(=O)[C@@H]1CSSC[C@H](NC(=O)[C@@H](N)CC(=O)O)C(=O)N[C@@H](C)C(=O)N[C@@H](Cc2c[nH]c3ccccc23)C(=O)N[C@@H](Cc2c[nH]cn2)C(=O)N[C@@H](CC(C)C)C(=O)NCC(=O)N[C@@H](CCC(=O)O)C(=O)N[C@@H](CC(C)C)C(=O)N[C@@H](C(C)C)C(=O)N[C@@H](Cc2c[nH]c3ccccc23)C(=O)N1)[C@@H](C)O)[C@@H](C)O)[C@@H](C)CC)[C@@H](C)O)[C@@H](C)CC)C(=O)N[C@@H](CCCCN)C(=O)N[C@@H](CCCCN)C(=O)N[C@@H](CO)C(=O)O [IBP-CP24] (H-DCAWHLGELVWCTMTWEEWDKKIEEYTKKIEELIKKS-OH; disulfide 2-12; N-terminus and C-terminus assumed) | 85.25 | ~1.1 | about 2.5 fold | about 1.5 fold | 0.13 | 1.42 | 35 | 16 | 9.0 | 0.4 | 4.4 | 557 | about 1.2 fold | remained about the same | no obvious in vivo toxicity | no pathological abnormality | no significant difference | no significant difference
MTWEEWDKKIEEYTKKIEELIKKS [CP24, reference compound] | 78.69 |  |  |  |  |  |  |  |  |  |  |  |  | remained about the same |  |  | no significant difference | no significant difference
